# Assays:
# [1] = target: T1, Alpha-2C adrenergic receptor (Homo sapiens, UniProt P18825); type: functional
# T1 sequence (P18825 whole entry): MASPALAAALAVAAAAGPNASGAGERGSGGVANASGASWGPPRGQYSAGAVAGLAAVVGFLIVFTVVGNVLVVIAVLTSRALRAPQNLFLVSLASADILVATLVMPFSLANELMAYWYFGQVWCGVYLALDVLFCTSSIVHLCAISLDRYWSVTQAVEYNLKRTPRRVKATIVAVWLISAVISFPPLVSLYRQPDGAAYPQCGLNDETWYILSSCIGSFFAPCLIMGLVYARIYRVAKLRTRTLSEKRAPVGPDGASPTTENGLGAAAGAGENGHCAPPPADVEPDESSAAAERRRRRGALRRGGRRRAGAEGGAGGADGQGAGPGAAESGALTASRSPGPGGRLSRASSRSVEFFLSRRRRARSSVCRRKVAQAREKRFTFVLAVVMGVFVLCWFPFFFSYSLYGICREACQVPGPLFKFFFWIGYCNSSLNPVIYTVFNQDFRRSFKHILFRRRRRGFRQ
# Mu-type opioid receptor = Mu-type opioid receptor (Homo sapiens, UniProt P35372); test: biochemical; type: functional
# Histamine H2 receptor = Histamine H2 receptor (Homo sapiens, UniProt P25021); type: functional, cell-based
# [2] = target: Voltage-dependent L-type calcium channel subunit alpha-1C (Rattus norvegicus, UniProt P22002); type: functional
# [3] = target: Beta-1 adrenergic receptor (Homo sapiens, UniProt P08588); type: functional
# [4] = target: T2, Alpha-2A adrenergic receptor (Homo sapiens, UniProt P08913); type: functional, cell-based
# T2 sequence (P08913 whole entry): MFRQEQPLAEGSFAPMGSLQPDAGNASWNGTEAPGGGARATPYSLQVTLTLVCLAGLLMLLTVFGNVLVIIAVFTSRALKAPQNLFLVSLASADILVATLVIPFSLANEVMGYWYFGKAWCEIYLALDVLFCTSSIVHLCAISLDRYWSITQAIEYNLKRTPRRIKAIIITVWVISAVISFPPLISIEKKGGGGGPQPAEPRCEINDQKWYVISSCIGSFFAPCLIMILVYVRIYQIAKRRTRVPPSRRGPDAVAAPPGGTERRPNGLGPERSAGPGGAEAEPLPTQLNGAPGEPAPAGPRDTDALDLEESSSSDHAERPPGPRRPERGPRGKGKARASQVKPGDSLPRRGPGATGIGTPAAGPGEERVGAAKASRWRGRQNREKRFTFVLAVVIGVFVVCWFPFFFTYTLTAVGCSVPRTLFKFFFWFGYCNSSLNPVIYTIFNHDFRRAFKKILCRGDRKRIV
# [5] = target: Beta-2 adrenergic receptor (Homo sapiens, UniProt P07550)
# [6] = target: Glutamate receptor ionotropic, NMDA 1 (Rattus norvegicus, UniProt P35439)
# Cannabinoid receptor 1 [7] = target: T3, Cannabinoid receptor 1 (Homo sapiens, UniProt P21554); type: functional, cell-based
# Androgen receptor [8] = target: T4, Androgen receptor (Rattus norvegicus, UniProt P15207); type: functional
# T4 sequence (P15207 whole entry): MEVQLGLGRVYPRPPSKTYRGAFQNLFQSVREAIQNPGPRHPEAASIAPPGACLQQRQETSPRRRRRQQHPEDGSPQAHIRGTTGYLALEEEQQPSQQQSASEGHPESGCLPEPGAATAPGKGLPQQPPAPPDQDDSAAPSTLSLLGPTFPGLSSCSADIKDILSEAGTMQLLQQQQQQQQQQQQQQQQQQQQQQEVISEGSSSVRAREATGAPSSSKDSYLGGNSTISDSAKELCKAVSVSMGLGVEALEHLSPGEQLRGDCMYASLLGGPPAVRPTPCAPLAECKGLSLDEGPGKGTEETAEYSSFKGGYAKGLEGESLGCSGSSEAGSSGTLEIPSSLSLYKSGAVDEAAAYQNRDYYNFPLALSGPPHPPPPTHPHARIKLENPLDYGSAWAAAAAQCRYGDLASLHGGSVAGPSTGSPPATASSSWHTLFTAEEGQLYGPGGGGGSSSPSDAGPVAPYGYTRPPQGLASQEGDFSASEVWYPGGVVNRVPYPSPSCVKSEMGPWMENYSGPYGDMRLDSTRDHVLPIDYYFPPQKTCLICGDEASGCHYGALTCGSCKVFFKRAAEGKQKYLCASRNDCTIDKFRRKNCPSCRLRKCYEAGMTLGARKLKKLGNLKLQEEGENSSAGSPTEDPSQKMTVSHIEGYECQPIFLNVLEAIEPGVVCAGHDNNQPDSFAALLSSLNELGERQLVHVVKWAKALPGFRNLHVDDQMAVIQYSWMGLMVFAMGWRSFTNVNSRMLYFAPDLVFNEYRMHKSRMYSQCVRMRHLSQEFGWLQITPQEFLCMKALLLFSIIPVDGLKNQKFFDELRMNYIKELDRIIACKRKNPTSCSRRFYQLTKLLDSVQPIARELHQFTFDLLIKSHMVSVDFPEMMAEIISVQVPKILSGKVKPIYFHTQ
# Histamine H1 receptor = Histamine H1 receptor (Homo sapiens, UniProt P35367)
# Cannabinoid receptor 1 [9] = target: T3, Cannabinoid receptor 1; type: functional, cell-based; remark: listed apart in the source
# Histamine H3 receptor = Histamine H3 receptor (Homo sapiens, UniProt Q9Y5N1)
# [10] = target: T5, Alpha-1A adrenergic receptor (Homo sapiens, UniProt P35348); type: functional, cell-based
# T5 sequence (P35348 whole entry): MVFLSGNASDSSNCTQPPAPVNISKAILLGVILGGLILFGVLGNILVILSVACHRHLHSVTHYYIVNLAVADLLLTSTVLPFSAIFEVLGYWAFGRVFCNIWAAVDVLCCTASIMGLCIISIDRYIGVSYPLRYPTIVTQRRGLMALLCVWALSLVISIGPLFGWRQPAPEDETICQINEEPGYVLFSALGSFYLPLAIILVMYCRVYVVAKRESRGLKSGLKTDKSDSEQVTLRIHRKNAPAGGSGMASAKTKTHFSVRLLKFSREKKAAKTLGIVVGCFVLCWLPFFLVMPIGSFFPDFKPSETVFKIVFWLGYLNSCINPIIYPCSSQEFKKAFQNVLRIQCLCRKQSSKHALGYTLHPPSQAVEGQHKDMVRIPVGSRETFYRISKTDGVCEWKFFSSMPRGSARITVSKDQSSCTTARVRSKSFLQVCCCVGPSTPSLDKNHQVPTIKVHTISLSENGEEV
# Androgen receptor [11] = target: T4, Androgen receptor; type: functional; remark: listed apart in the source
# [12] = target: T6, Amine oxidase [flavin-containing] A (Homo sapiens, UniProt P21397); type: functional
# T6 sequence (P21397 whole entry): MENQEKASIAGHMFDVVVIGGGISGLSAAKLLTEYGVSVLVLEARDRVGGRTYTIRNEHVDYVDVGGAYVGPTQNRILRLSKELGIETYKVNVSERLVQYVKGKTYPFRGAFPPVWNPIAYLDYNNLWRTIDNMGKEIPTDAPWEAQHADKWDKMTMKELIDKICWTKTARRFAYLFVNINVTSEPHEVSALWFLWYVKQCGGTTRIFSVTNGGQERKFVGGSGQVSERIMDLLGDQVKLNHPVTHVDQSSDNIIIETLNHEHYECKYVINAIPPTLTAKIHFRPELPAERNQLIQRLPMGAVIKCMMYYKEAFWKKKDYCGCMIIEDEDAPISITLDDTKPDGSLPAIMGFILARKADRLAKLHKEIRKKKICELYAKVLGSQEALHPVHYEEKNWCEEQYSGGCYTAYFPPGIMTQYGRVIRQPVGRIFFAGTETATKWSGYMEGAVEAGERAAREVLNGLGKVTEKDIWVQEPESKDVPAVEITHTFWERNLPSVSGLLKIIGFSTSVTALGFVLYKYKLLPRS
# Cannabinoid receptor 1 [13] = target: T3, Cannabinoid receptor 1; type: functional
# Acetylcholinesterase = Acetylcholinesterase (Homo sapiens, UniProt P22303); type: functional
# [14] = target: Gamma-aminobutyric acid receptor subunit alpha-1/alpha-2/beta-2/gamma-2 (Homo sapiens, UniProt P14867+P18507+P47869+P47870); type: protein-complex assay
# [15] = target: Sodium channel protein type 5 subunit alpha (Homo sapiens, UniProt Q14524); type: functional, cell-based
# Also: assay procedure not described here.
# T3 sequence (P21554 whole entry): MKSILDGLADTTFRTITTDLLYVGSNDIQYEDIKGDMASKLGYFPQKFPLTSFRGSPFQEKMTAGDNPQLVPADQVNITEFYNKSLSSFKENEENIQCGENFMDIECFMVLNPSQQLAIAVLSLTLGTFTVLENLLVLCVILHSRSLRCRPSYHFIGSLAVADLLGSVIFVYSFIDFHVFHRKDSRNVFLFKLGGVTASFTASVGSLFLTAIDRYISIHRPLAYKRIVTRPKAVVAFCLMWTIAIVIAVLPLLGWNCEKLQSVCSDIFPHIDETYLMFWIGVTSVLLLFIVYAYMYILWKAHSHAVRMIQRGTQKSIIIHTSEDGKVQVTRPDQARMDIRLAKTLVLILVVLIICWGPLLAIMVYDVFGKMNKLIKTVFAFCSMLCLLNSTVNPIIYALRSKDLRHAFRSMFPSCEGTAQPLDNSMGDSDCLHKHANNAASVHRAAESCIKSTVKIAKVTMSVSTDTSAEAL
# Chain of Histamine H2 receptor (P25021 whole entry): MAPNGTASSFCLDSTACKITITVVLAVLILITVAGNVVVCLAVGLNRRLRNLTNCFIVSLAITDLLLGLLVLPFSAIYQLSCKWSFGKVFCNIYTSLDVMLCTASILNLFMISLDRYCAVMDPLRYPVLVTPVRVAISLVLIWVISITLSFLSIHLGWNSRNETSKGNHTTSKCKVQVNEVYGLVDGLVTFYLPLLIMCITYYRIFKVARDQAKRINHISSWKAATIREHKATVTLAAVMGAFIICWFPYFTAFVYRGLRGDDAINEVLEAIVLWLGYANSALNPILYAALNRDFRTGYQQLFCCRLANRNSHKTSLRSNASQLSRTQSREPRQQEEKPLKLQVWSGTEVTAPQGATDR
# Chain of Voltage-dependent L-type calcium channel subunit alpha-1C (P22002 whole entry): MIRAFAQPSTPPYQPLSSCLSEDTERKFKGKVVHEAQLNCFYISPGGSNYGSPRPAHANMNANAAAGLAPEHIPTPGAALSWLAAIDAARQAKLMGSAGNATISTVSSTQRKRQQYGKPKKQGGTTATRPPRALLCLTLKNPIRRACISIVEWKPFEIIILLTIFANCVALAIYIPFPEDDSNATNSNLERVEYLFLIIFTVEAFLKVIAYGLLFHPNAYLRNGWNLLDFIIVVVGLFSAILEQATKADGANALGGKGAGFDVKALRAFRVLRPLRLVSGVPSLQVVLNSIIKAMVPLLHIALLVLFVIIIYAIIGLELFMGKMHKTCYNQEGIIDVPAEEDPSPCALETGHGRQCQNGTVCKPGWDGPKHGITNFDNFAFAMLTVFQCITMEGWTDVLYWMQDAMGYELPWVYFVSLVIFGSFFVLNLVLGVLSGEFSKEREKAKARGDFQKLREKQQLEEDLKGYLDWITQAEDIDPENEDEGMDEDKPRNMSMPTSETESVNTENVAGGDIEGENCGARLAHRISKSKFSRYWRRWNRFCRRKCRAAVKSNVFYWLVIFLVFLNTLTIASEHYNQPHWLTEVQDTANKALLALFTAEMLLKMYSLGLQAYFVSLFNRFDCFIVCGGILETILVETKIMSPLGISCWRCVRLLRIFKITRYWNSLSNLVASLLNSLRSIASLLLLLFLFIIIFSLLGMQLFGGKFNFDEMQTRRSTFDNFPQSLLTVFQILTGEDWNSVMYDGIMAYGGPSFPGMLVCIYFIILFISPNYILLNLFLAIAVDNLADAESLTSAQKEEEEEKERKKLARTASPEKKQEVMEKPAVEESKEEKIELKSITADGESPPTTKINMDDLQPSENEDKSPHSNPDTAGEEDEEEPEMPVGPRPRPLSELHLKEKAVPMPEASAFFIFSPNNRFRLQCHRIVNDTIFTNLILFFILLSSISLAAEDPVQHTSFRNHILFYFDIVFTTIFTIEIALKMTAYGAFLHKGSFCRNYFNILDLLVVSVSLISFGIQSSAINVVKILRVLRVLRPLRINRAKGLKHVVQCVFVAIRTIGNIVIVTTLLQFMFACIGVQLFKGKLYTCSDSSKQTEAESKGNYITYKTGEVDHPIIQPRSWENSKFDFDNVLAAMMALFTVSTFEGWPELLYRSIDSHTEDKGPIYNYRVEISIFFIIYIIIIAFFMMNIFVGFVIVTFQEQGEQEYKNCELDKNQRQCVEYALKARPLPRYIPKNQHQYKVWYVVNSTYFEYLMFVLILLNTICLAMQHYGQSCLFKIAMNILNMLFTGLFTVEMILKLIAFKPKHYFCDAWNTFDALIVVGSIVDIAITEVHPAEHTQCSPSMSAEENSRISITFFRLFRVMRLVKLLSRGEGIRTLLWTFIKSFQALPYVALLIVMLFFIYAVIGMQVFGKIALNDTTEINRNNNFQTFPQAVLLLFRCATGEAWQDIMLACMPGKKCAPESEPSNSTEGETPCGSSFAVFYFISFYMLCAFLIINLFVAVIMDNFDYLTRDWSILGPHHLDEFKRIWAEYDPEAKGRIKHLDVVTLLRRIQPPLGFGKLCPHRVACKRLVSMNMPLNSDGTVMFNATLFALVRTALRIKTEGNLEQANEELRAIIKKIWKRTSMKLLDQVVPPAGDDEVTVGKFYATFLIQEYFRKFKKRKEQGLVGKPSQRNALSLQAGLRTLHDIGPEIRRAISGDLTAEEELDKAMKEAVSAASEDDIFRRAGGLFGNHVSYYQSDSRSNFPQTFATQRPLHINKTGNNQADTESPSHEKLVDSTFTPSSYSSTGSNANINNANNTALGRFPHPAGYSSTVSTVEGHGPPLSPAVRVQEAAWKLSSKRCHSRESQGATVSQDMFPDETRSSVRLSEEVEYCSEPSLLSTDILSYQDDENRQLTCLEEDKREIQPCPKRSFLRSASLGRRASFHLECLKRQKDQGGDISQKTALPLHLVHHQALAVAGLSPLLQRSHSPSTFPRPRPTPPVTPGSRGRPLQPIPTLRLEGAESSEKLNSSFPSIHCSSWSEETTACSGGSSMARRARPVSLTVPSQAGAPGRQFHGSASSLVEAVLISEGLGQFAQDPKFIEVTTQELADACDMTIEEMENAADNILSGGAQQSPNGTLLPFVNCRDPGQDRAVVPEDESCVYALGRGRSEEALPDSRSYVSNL
# Chain of Gamma-aminobutyric acid receptor subunit alpha-1/alpha-2/beta-2/gamma-2 (P14867 whole entry): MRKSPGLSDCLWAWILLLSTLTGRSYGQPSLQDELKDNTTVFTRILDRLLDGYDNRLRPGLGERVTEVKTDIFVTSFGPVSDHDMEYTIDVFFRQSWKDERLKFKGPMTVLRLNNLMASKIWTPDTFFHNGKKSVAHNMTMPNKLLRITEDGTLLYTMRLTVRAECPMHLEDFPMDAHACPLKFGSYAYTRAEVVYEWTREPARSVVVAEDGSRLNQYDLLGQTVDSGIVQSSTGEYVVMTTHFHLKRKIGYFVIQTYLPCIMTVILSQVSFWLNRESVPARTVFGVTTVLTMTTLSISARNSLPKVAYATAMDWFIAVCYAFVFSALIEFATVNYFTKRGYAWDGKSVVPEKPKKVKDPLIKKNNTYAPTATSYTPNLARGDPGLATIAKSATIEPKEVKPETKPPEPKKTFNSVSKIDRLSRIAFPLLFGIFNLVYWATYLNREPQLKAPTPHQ
# Chain of Gamma-aminobutyric acid receptor subunit alpha-1/alpha-2/beta-2/gamma-2 (P47870 whole entry): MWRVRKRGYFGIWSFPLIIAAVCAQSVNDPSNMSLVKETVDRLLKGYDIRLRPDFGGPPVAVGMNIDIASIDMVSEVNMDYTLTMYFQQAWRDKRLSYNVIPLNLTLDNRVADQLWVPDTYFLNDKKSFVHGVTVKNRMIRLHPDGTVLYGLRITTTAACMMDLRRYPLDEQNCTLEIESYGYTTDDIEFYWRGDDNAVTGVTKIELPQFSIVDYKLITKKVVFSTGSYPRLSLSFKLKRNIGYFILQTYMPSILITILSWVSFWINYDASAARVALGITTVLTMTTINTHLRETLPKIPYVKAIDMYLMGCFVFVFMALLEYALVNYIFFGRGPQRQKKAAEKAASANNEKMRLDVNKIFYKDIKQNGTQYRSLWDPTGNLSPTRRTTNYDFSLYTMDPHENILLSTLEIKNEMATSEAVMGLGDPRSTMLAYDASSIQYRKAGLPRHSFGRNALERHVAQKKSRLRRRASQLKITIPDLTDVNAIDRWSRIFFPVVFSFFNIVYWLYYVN
# Chain of Gamma-aminobutyric acid receptor subunit alpha-1/alpha-2/beta-2/gamma-2 (P18507 whole entry): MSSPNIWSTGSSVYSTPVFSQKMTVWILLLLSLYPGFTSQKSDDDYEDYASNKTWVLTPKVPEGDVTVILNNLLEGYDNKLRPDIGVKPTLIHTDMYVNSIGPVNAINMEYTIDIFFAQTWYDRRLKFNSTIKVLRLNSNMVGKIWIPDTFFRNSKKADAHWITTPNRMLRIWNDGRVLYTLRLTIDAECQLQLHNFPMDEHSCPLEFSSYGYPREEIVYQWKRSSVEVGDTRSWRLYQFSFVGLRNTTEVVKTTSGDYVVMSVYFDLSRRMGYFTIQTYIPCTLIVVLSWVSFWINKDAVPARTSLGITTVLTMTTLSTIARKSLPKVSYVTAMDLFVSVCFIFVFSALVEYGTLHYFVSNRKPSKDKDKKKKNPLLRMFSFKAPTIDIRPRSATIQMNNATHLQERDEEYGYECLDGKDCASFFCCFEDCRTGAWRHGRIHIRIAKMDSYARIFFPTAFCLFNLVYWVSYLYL
# Chain of Gamma-aminobutyric acid receptor subunit alpha-1/alpha-2/beta-2/gamma-2 (P47869 whole entry): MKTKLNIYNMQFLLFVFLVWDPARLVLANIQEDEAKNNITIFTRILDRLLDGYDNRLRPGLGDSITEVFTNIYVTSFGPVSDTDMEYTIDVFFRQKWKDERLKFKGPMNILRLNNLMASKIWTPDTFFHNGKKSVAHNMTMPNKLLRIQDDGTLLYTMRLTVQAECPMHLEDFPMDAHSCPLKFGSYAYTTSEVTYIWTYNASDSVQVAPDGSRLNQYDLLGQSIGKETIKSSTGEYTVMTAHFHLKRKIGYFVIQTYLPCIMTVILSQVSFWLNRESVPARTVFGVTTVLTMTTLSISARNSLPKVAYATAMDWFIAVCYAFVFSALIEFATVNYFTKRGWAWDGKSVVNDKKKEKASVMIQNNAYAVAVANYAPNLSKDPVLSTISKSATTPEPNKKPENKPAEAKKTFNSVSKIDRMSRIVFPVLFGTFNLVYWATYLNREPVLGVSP
SMILES,AC50 [1],AC50 (Mu-type opioid receptor),AC50 (Histamine H2 receptor),AC50 [2],AC50 [3],AC50 [4],AC50 [5],AC50 [6],AC50 (Cannabinoid receptor 1 [7]),AC50 (Androgen receptor [8]),AC50 (Histamine H1 receptor),AC50 (Cannabinoid receptor 1 [9]),AC50 (Histamine H3 receptor),AC50 [10],AC50 (Androgen receptor [11]),AC50 [12],AC50 (Cannabinoid receptor 1 [13]),AC50 (Acetylcholinesterase),AC50 [14],AC50 [15]
CCC(=O)OCC(=O)[C@@]1(OC(=O)CC)[C@H](C)C[C@H]2[C@H]3[C@H]([C@@H](O)C[C@@]21C)[C@@]1(C)C=CC(=O)C=C1C[C@H]3Cl [ALCLOMETASONE DIPROPIONATE],> 30 µM,> 30 µM,> 30 µM,> 30 µM,> 30 µM,> 30 µM,> 30 µM,> 30 µM,> 30 µM,9.4 µM,> 30 µM,0.58 µM,> 30 µM,> 30 µM,> 30 µM,> 30 µM,,,,
OCCOCCN1CCN(C2=Nc3ccccc3Sc3ccccc32)CC1 [QUETIAPINE],,,,,,,,,> 30 µM,,,> 30 µM,,,,,> 10 µM,> 30 µM,> 30 µM,
N#C[C@@H]1C[C@@H]2C[C@@H]2N1C(=O)[C@@H](N)C12CC3CC(CC(O)(C3)C1)C2 [SAXAGLIPTIN ANHYDROUS],,,,,,,,,,,,,,,,,,,,> 15 µM

# — ChEMBL document CHEMBL5291721, “A preclinical secondary pharmacology resource illuminates target-adverse drug reaction associations of marketed drugs” (Nat Commun, 2023)
